Patent US9775844B2, “Heterocyclic compounds and uses thereof” (Infinity Pharmaceuticals, Inc., priority 2014, dated 2017)

Assays:
PI3K α = PI3K α (Homo sapiens (Human), UniProt P42336); test: PI3-Kinase Promega ADP-Glo Max assay; assay type: biochemical
Procedure: (§1) Promega ADP-Glo Max assay kit (Cat. No. V7002) was utilized to determine IC50 values for α, β, δ and γ isoforms of human Class I PI3 kinases (Millipore). […] Reactions were incubated at room temperature for 2 hours followed by addition of 25 uL of stop solution. After a 40-minute incubation at room temperature, 50 uL of Promega detection mix was added followed by incubation for 1 hour at room temperature. Plates were then read on Envision plate reader in lunimescence mode. Data was converted to % inhibition using the following equation below:
(§2) [formula] where S is the sample luminescence, Pos is a positive control without added PI3K, Neg is the negative control without added compound. Data was then plotted as % inhibition vs compound concentration.

PI3K β = PI3K β (Homo sapiens (Human), UniProt P42338); test: PI3-Kinase Promega ADP-Glo Max assay; assay type: biochemical
Procedure: as §1, §2

PI3K δ = PI3K δ (Homo sapiens (Human), UniProt O00329); test: PI3-Kinase Promega ADP-Glo Max assay; assay type: biochemical
Procedure: as §1, §2

PI3K γ = PI3K γ (Homo sapiens (Human), UniProt P48736); test: PI3-Kinase Promega ADP-Glo Max assay; assay type: biochemical
Procedure: as §1, §2

PI3K-δ in RAJI cells = PI3K-δ in RAJI cells (Homo sapiens (Human), UniProt O00329); test: RAJI p110 δ assay (PI3K-δ selective cellular assay, phospho-AKT); assay type: cell-based; settings: phospho-AKT; read-out: RAJI p110 δ assay IC50
[1] = target: PI3K-γ in RAW264.7 macrophages (Mus musculus (Mouse), UniProt Q9JHG7); test: Raw264.7 p110 γ assay (PI3K-γ selective cellular assay, C5a-stimulated phospho-AKT); assay type: cell-based; settings: for IC50: phospho-AKT, read-out: Raw264.7 p110 γ assay IC50
Chain of PI3K-γ in RAW264.7 macrophages (Q9JHG7 whole entry): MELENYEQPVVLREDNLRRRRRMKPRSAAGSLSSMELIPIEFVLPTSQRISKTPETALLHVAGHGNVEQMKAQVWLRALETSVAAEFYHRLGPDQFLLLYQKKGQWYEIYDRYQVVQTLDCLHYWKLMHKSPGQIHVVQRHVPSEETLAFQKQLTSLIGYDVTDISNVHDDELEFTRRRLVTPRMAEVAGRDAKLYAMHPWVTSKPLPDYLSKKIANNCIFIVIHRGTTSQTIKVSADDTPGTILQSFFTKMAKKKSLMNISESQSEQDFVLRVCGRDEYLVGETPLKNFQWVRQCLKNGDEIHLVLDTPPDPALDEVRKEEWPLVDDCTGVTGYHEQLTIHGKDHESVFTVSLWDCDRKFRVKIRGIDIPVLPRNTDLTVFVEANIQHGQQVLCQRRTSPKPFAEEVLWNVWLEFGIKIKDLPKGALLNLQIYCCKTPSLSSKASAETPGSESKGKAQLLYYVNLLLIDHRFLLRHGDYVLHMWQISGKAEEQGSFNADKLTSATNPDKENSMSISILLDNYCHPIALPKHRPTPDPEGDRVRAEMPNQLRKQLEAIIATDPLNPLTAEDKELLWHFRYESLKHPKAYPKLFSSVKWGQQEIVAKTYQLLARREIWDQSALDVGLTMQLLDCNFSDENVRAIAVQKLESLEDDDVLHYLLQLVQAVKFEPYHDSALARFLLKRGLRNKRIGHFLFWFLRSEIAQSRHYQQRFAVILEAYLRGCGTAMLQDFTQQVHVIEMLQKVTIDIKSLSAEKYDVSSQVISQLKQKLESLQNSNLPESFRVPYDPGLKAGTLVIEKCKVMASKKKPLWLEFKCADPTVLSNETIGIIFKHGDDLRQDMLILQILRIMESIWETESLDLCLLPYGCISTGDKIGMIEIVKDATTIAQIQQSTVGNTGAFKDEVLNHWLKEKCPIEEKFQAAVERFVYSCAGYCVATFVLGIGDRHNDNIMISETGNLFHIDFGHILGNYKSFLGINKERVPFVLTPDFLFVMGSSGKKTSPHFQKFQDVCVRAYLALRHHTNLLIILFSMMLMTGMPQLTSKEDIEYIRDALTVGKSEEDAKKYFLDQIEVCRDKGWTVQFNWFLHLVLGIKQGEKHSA
Source text: Briefly, serum-starved RAW264.7 cells are stimulated with a known GPCR agonist C5a. […] Cells can be treated with test compounds prior to, simultaneously with, or subsequent to the stimulation by C5a. RAW 264.7 cells respond to the complement component fragment C5a through activation of the C5a receptor, and the C5a receptor activates macrophages and induces cell migration.

Chain of PI3K γ (P48736 whole entry): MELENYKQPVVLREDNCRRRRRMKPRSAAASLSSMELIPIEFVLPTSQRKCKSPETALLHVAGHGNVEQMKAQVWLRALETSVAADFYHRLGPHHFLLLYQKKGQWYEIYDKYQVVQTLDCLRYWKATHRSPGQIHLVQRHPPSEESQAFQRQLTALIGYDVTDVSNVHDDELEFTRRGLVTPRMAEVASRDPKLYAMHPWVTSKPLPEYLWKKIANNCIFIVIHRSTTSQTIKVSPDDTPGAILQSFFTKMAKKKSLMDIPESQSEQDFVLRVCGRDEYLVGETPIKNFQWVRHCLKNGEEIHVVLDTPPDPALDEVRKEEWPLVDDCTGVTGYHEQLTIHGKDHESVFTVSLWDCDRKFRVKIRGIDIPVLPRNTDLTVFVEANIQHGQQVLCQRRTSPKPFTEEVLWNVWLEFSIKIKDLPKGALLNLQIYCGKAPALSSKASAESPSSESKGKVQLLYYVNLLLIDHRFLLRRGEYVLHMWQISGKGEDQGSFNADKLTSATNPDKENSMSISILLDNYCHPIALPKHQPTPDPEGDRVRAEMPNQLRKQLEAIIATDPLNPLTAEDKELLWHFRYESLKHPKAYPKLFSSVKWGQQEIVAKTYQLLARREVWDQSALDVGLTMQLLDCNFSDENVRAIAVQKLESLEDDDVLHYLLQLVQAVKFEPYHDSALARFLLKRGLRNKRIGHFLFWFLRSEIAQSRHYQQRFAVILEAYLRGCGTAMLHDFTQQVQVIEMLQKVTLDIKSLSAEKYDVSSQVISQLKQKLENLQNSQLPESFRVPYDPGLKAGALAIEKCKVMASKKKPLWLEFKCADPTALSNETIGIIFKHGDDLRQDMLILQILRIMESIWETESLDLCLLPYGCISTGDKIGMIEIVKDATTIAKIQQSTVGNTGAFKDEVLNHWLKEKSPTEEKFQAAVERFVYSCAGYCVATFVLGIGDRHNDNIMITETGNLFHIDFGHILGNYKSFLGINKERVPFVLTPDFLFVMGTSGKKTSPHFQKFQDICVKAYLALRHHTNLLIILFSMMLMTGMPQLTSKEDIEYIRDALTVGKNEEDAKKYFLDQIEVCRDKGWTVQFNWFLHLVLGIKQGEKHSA
Chain of PI3K α (P42336 whole entry): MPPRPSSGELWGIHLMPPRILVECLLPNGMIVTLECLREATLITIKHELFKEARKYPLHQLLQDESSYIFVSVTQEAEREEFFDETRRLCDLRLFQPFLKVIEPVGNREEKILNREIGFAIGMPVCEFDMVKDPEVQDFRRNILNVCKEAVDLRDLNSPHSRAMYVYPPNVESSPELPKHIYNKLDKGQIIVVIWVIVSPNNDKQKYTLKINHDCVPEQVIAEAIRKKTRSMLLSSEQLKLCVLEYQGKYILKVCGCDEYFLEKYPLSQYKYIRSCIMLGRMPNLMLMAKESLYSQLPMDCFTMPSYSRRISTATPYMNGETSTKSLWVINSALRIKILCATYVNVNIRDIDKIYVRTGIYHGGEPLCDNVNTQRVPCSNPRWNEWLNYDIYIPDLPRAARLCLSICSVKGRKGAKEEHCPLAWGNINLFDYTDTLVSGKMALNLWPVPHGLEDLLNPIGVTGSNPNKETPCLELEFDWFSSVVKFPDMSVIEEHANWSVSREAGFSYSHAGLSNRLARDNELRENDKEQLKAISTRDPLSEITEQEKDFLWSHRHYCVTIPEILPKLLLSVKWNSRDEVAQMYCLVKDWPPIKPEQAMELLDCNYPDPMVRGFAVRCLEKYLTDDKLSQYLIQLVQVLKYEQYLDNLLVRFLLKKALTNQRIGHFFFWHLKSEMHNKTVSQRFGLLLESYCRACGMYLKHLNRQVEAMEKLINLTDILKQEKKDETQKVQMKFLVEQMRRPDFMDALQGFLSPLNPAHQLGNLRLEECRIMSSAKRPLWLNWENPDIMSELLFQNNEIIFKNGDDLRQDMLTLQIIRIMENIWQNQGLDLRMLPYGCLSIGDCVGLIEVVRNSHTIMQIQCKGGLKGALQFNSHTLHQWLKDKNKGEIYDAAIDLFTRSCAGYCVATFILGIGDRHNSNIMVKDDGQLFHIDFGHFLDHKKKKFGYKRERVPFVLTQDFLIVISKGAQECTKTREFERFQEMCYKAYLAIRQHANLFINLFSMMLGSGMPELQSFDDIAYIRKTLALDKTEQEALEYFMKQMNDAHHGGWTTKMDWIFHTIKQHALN
Chain of PI3K α (P27986 whole entry partner): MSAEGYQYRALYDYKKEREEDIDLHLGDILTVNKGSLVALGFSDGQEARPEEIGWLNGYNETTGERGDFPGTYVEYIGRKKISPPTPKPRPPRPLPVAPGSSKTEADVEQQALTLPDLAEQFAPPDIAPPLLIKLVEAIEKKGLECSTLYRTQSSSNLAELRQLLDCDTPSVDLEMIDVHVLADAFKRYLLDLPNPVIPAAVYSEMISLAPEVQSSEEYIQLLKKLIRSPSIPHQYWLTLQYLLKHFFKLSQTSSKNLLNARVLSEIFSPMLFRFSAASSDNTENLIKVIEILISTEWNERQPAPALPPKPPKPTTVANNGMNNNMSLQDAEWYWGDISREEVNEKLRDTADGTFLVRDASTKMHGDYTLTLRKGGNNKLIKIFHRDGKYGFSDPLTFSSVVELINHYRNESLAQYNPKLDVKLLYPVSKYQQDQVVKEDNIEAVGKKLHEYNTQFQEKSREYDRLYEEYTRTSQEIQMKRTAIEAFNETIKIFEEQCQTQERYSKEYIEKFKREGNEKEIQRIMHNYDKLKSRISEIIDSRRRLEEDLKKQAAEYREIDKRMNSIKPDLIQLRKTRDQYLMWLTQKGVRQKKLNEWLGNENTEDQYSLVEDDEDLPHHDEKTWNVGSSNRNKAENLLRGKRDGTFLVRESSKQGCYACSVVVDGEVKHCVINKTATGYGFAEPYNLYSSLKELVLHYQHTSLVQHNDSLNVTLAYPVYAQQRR
Chain of PI3K-δ in RAJI cells (O00329 whole entry): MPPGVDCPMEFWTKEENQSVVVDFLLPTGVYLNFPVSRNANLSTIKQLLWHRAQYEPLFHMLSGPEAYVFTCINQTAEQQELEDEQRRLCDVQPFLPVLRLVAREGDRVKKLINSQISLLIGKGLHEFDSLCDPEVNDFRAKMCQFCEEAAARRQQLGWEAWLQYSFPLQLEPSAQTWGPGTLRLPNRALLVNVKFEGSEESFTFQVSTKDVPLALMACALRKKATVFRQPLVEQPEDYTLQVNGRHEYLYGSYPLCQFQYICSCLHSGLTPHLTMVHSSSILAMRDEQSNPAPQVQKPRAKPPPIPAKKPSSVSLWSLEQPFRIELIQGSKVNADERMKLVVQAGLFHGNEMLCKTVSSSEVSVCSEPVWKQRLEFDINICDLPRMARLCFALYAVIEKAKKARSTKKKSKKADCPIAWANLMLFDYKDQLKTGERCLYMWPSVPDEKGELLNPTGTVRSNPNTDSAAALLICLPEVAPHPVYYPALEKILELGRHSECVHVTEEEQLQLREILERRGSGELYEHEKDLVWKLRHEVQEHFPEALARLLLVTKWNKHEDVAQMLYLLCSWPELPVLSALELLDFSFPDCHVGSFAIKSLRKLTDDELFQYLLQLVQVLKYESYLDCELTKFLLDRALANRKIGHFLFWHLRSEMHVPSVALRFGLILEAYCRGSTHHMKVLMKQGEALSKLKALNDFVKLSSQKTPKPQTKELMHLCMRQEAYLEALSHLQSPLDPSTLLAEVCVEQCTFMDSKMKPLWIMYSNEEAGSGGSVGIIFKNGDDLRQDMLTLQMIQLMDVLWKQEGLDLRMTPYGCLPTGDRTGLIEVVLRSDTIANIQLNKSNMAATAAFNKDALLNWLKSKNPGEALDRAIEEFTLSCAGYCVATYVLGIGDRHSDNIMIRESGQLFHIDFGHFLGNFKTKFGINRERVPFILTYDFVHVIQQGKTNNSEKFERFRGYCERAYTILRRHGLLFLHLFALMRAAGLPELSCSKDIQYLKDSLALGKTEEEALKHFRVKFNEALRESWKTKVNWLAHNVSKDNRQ
Chain of PI3K-δ in RAJI cells (P27986 whole entry partner): as the sequence (P27986 whole entry partner) above

SMILES | IC50 (PI3K α) [µM] | IC50 (PI3K β) [µM] | IC50 (PI3K δ) [µM] | IC50 (PI3K γ) [µM] | PI3K δ/PI3K γ IC50 (selectivity) (PI3K γ) | IC50 (PI3K-δ in RAJI cells) [µM] | RAJIδ/Raw264.7 γ IC50 (selectivity) [1] | IC50 [1] [µM]
C[C@H](NC(=O)c1c(N)nn2cccnc12)c1cc2cccc(C#CC(C)(C)N)c2c(=O)n1-c1ccccc1 [Compound 8] | 5 to 10 | 5 to 10 | 5 to 10 | 0.5 to 1 | X (X = 10 to <50) | 1 to 10 | W (W = >1 to <10) | 0.1 to 10
C[C@H](NC(=O)c1c(N)nn2cccnc12)c1cc2cccc(C#CC3CC3)c2c(=O)n1-c1ccccc1 [Compound 9] | 1 to 5 | 1 to 5 | 1 to 5 | 0.1 to 0.5 | X (X = 10 to <50) | 0.1 to 0.5 | Y (Y = 50 to <850) | 0.001 to 0.05
C[C@H](NC(=O)c1c(N)nn2cccnc12)c1cc2cccc(C#CCN3CCOCC3)c2c(=O)n1-c1ccccc1 [Compound 10] | 5 to 10 | 5 to 10 | 5 to 10 | 0.1 to 0.5 | X (X = 10 to <50) | 1 to 10 | X (X = 10 to <50) | 0.001 to 0.05
C[C@H](NC(=O)c1c(N)nn2cccnc12)c1cc2cccc(C#CC(C)(C)O)c2c(=O)n1-c1ccccc1 [Compound 11] | 5 to 10 | 5 to 10 | 5 to 10 | 0.1 to 0.5 | X (X = 10 to <50) | 1 to 10 | X (X = 10 to <50) | 0.05 to 0.1
COCC#Cc1cccc2cc([C@H](C)NC(=O)c3c(N)nn4cccnc34)n(-c3ccccc3)c(=O)c12 [Compound 12] | 5 to 10 | 1 to 5 | 1 to 5 | 0.001 to 0.1 | X (X = 10 to <50) | 0.1 to 0.5 | X (X = 10 to <50) | 0.001 to 0.05
C[C@H](NC(=O)c1c(N)nn2cccnc12)c1cc2cccc(C#CCO)c2c(=O)n1-c1ccccc1 [Compound 13] | 5 to 10 | 1 to 5 | 0.5 to 1 | 0.001 to 0.1 | X (X = 10 to <50) | 0.001 to 0.1 | W (W = >1 to <10) | 0.001 to 0.05
C[C@H](NC(=O)c1c(N)nn2cccnc12)c1cc2cccc(C#CCN3CCCC3=O)c2c(=O)n1-c1ccccc1 [Compound 14] | 1 to 5 | 1 to 5 | 0.001 to 0.5 | 0.001 to 0.1 | X (X = 10 to <50) | 0.001 to 0.1 | W (W = >1 to <10) | 0.001 to 0.05
C[C@H](NC(=O)c1c(N)nn2cccnc12)c1cc2cccc(C#C[C@@H](C)O)c2c(=O)n1-c1ccccc1 [Compound 15] | 5 to 10 | 5 to 10 | 0.5 to 1 | 0.001 to 0.1 | X (X = 10 to <50) | 0.1 to 0.5 | W (W = >1 to <10) | 0.001 to 0.05
C[C@H](O)C#Cc1cccc2cc([C@H](C)NC(=O)c3c(N)nn4cccnc34)n(-c3ccccc3)c(=O)c12 [Compound 16] | 5 to 10 | 1 to 5 | 1 to 5 | 0.001 to 0.1 | Y (Y = 50 to <850) | 0.1 to 0.5 | X (X = 10 to <50) | 0.001 to 0.05
C[C@H](NC(=O)c1c(N)nn2cccnc12)c1cc2cccc(C#Cc3cccnc3)c2c(=O)n1-c1ccccc1 [Compound 17] | 5 to 10 | 5 to 10 | 5 to 10 | 0.1 to 0.5 | Y (Y = 50 to <850) | 0.1 to 0.5 | Y (Y = 50 to <850) | 0.001 to 0.05
COc1ncc(C#Cc2cccc3cc([C@H](C)NC(=O)c4c(N)nn5cccnc45)n(-c4ccccc4)c(=O)c23)cn1 [Compound 18] | 5 to 10 | 5 to 10 | 5 to 10 | 0.1 to 0.5 | Y (Y = 50 to <850) | 0.1 to 0.5 | X (X = 10 to <50) | 0.001 to 0.05
Cc1nn(C)cc1C#Cc1cccc2cc([C@H](C)NC(=O)c3c(N)nn4cccnc34)n(-c3ccccc3)c(=O)c12 [Compound 19] | 5 to 10 | 5 to 10 | 5 to 10 | 0.1 to 0.5 | Y (Y = 50 to <850) | 0.5 to 1 | Y (Y = 50 to <850) | 0.001 to 0.05
C[C@H](NC(=O)c1c(N)nn2cccnc12)c1cc2cccc(C#Cc3ccc(=O)n(C)c3)c2c(=O)n1-c1ccccc1 [Compound 20] | 5 to 10 | 5 to 10 | 1 to 5 | 0.001 to 0.1 | X (X = 10 to <50) | 0.1 to 0.5 | X (X = 10 to <50) | 0.001 to 0.05
COC(C)C#Cc1cccc2cc([C@H](C)NC(=O)c3c(N)nn4cccnc34)n(-c3ccccc3)c(=O)c12 (some centres unmarked) [Compound 22] | 5 to 10 | 5 to 10 | 5 to 10 | 0.1 to 0.5 | X (X = 10 to <50) | 1 to 10 | X (X = 10 to <50) | 0.001 to 0.05
C[C@H](NC(=O)c1c(N)nn2cccnc12)c1cc2cccc(C#Cc3cncn3C)c2c(=O)n1C1CC1 [Compound 23] | 1 to 5 | 1 to 5 | 5 to 10 | 1 to 5 | W (W = >1 to <10) | 0.1 to 0.5 | W (W = >1 to <10) | 0.001 to 0.05
C[C@H](NC(=O)c1c(N)nn2cccnc12)c1cc2cccc(C#CC3CC3)c2c(=O)n1C1CC1 [Compound 24] | 1 to 5 | 1 to 5 | 1 to 5 | 1 to 5 | W (W = >1 to <10) | 0.1 to 0.5 | W (W = >1 to <10) | 0.001 to 0.05
C[C@H](NC(=O)c1c(N)nn2cccnc12)c1cc2cccc(C#Cc3ccncc3)c2c(=O)n1-c1ccccc1 [Compound 26] | 5 to 10 | 5 to 10 | 5 to 10 | 0.1 to 0.5 | X (X = 10 to <50) | 0.1 to 0.5 | Y (Y = 50 to <850) | 0.001 to 0.05
C[C@H](NC(=O)c1c(N)nn2cccnc12)c1cc2cccc(C#CC3CCOCC3)c2c(=O)n1-c1ccccc1 [Compound 27] | 5 to 10 | 5 to 10 | 5 to 10 | 0.1 to 0.5 | X (X = 10 to <50) | 0.001 to 0.1 | Y (Y = 50 to <850) | 0.001 to 0.05
COc1cc(C#Cc2cccc3cc([C@H](C)NC(=O)c4c(N)nn5cccnc45)n(-c4ccccc4)c(=O)c23)ccn1 [Compound 28] | 5 to 10 | 5 to 10 | 5 to 10 | 1 to 5 | W (W = >1 to <10) | 0.1 to 0.5 | X (X = 10 to <50) | 0.001 to 0.05
C[C@H](NC(=O)c1nccnc1N)c1cc2cccc(C#Cc3cnn(C)c3)c2c(=O)n1-c1ccccc1 [Compound 29] | 5 to 10 | 1 to 5 | 1 to 5 | 0.1 to 0.5 | X (X = 10 to <50) | 0.001 to 0.1 | W (W = >1 to <10) | 0.001 to 0.05
C[C@H](NC(=O)c1c(N)nn2cccnc12)c1cc2cccc(C#Cc3ccn(C)n3)c2c(=O)n1-c1ccccc1 [Compound 30] | 5 to 10 | 5 to 10 | 5 to 10 | 0.1 to 0.5 | Y (Y = 50 to <850) | 0.1 to 0.5 | Y (Y = 50 to <850) | 0.001 to 0.05
C[C@H](NC(=O)c1c(N)nn2cccnc12)c1cc2cccc(C#Cc3cc[nH]c(=O)c3)c2c(=O)n1-c1ccccc1 [Compound 31] | 5 to 10 | 5 to 10 | 5 to 10 | 0.1 to 0.5 | X (X = 10 to <50) | 0.1 to 0.5 | W (W = >1 to <10) | 0.05 to 0.1
C[C@H](NC(=O)c1c(N)nn2cccnc12)c1cc2cccc(C#Cc3ccccn3)c2c(=O)n1-c1ccccc1 [Compound 32] | 5 to 10 | 5 to 10 | 5 to 10 | 0.1 to 0.5 | Y (Y = 50 to <850) | 0.5 to 1 | Y (Y = 50 to <850) | 0.001 to 0.05
CCOC(C#Cc1cccc2cc([C@H](C)NC(=O)c3c(N)nn4cccnc34)n(-c3ccccc3)c(=O)c12)OCC [Compound 34] | 5 to 10 | 5 to 10 | 5 to 10 | 0.5 to 1 | X (X = 10 to <50) | 0.5 to 1 | X (X = 10 to <50) | 0.05 to 0.1
Cc1c(C#Cc2cccc3cc([C@H](C)NC(=O)c4c(N)nn5cccnc45)n(-c4ccccc4)c(=O)c23)cnn1C [Compound 35] | 5 to 10 | 5 to 10 | 5 to 10 | 0.1 to 0.5 | Y (Y = 50 to <850) | 0.5 to 1 | Y (Y = 50 to <850) | 0.001 to 0.05
